Results from patent US12492173B2, “Herbicidal substituted N-tetrazolyl aryl carboxamides” (Bayer Aktiengesellschaft, priority 2019, dated 2025).

What was measured:
Type in all cases: in vivo
Abutilon theophrasti [1] = experiment: Pre-emergence herbicidal action, ABUTH; settings: dosage 320 g/ha, scored visually after 3 weeks vs untreated controls (100% = plants have died)
Method in brief: (§1)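 Greenhouse pre-emergence test: formulated compound (WP or EC) applied in water to the soil covering sown seeds, 600–800 l/ha, 0.2% wetting agent. Scored visually in percent at 3 weeks versus untreated plants.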

Matricaria inodora [2] = experiment: Pre-emergence herbicidal action, MATIN; design: key to Herbicidal action against MATIN: % activity: 100 = plants have died, 0 = like control plants; settings: for herbicidal activity MATIN: dosage 320 g/ha, scored visually after 3 weeks vs untreated controls (100% = plants have died)
Method in brief: as §1

Stellaria media = experiment: Pre-emergence herbicidal action, STEME; settings: dosage 320 g/ha, scored visually after 3 weeks vs untreated controls (100% = plants have died)
Method in brief: as §1

Abutilon theophrasti [3] = experiment: Post-emergence herbicidal action, ABUTH; design: key: % herbicidal action vs untreated; 100 = plants died, 0 = like control
Method in brief: (§2)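 Treatment: post-emergence spray, one-leaf stage. Medium: sandy loam, greenhouse. Carrier: 600–800 l/ha water, 0.2% wetting agent. Read-out: visual % activity at ~3 weeks, untreated plants as reference.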

Matricaria inodora [4] = experiment: Post-emergence herbicidal action, MATIN; design: key: % herbicidal action vs untreated; 100 = plants died, 0 = like control
Method in brief: as §2

Viola tricolor = experiment: Post-emergence herbicidal action, VIOTR; design: key: % herbicidal action vs untreated; 100 = plants died, 0 = like control
Method in brief: as §2

Structure (SMILES) | herbicidal activity ABUTH (Abutilon theophrasti [1]) [%] | herbicidal activity MATIN (Matricaria inodora [2]) [%] | herbicidal activity STEME (Stellaria media) [%] | herbicidal action ABUTH (Abutilon theophrasti [3]; Dosage 80 g/ha) | herbicidal action MATIN (Matricaria inodora [4]; Dosage 80 g/ha) | herbicidal action VIOTR (Viola tricolor; Dosage 80 g/ha) | herbicidal action ABUTH (Abutilon theophrasti [3]; post-emergence, dosage 80 g/ha) [%] | herbicidal action MATIN (Matricaria inodora [4]; post-emergence, dosage 80 g/ha) [%] | herbicidal action VIOTR (Viola tricolor; post-emergence, dosage 80 g/ha) [%] | Herbicidal action against MATIN (Matricaria inodora [2]; comparative experiment, 20 g of a.i./ha)
CCCn1nnnc1NC(=O)c1ccc(C(F)(F)F)c(CSC)c1OC [Example 3-134] | 100 | 100 | 100 | 100 | 100 | 100 |  |  |  | 
CSCc1c(C(F)(F)F)ccc(C(=O)Nc2nnnn2C)c1SC [Example 1-161] | 100 | 100 | 100 | 90 | 100 | 100 |  |  |  | 
CCn1nnnc1NC(=O)c1ccc(C(F)(F)F)c(CS(C)(=O)=O)c1Br [Example 2-382] | 100 | 100 | 90 | 100 | 100 | 100 |  |  |  | 
Cn1nnnc1NC(=O)c1ccc(C(F)(F)F)c(CS(C)(=O)=O)c1Br [Example 1-382, 2-bromo-3-[(methylsulfonyl)methyl]-N-(1-methyl-1H-tetrazol-5-yl)-4-(trifluoromethyl)benzamide] | 100 | 100 | 90 | 100 | 100 | 100 |  |  |  | 
CCCn1nnnc1NC(=O)c1ccc(C(F)F)c(CSC)c1Cl [Example 3-320] | 100 | 100 | 100 | 100 | 100 | 100 |  |  |  | 
Cn1nnnc1NC(=O)c1ccc(Cl)c(CS(C)(=O)=O)c1Cl [Example 1-561] | 100 | 90 | 90 | 90 | 100 | 100 |  |  |  | 
CCn1nnnc1NC(=O)c1ccc(C(F)(F)F)c(C[S+](C)[O-])c1Br (stereo not shown) [Example 2-381] | 100 | 100 | 90 |  |  |  | 90 | 90 | 100 | 
CCS(=O)(=O)Cc1c(C(F)(F)F)ccc(C(=O)Nc2nnnn2C)c1Cl [Example 1-301] | 100 | 100 | 90 | 80 | 90 | 100 |  |  |  | 
CSCc1c(C(F)(F)F)ccc(C(=O)Nc2nnnn2C)c1F [Example 1-242] | 100 | 100 | 90 | 90 | 90 | 100 |  |  |  | 
CCCn1nnnc1NC(=O)c1ccc(C(F)(F)F)c(CSC)c1Cl [Example 3-296] | 100 | 100 | 100 | 100 | 100 | 100 |  |  |  | 
CSCc1c(C(F)(F)F)ccc(C(=O)Nc2nnnn2C)c1Br [Example 1-380] | 100 | 100 | 90 |  |  |  | 90 | 90 | 100 | 
CCCn1nnnc1NC(=O)c1ccc(C(F)(F)F)c(CSCC)c1Br [Example 3-383] | 100 | 100 | 100 | 90 | 100 | 100 |  |  |  | 
CCn1nnnc1NC(=O)c1ccc(C(F)(F)F)c(CSC)c1Br [Example 2-380] | 100 | 100 | 80 |  |  |  | 80 | 100 | 100 | 
CCCn1nnnc1NC(=O)c1ccc(C(F)(F)F)c(C[S+](C)[O-])c1Br (stereo not shown) [Example 3-381] | 100 | 100 | 90 |  |  |  | 90 | 90 | 100 | 
CCCn1nnnc1NC(=O)c1ccc(C(F)(F)F)c(CS(=O)(=O)CC)c1Br [Example 3-385] | 100 | 100 | 90 | 100 | 90 | 100 |  |  |  | 
Cn1nnnc1NC(=O)c1ccc(C(F)(F)F)c(C[S+](C)[O-])c1Cl (racemic) [Example 1-297] | 100 | 100 | 90 |  |  |  | 80 | 100 | 100 | 100
C=CCSCc1c(C(F)(F)F)ccc(C(=O)Nc2nnnn2C)c1Cl [Example 1-308] | 100 | 100 | 100 |  |  |  | 100 | 100 | 90 | 
CCSCc1c(C(F)F)ccc(C(=O)Nc2nnnn2C)c1SCC [Example 1-191] | 100 | 100 | 100 | 100 | 90 | 100 |  |  |  | 
